Measurements: a melting point compilation (Tetko et al.; mined from patent text by program, amines drawn as free bases though some values may be those of a salt)

SMILES	melting point
COc1cc2ncc(C#N)c(Nc3ccc4[nH]c(C)nc4c3)c2cc1OC	207 °C
CCNc1nc(NCc2ccco2)nc(Nc2ccc(O)cc2)n1	76 to 78 °C
CCC(=C(c1ccc(I)cc1)c1ccc(OCCCCCl)cc1)c1ccccc1	85 to 87 °C
O=C1c2ccc(CCCCc3ccccc3)cc2CCN1O	82 to 83 °C
CN1CCC(c2nc3ccccc3[nH]2)C1 (stereo not given)	189 to 193 °C
CC(C)c1cccc(C(C)C)c1NC(=O)CN(CC1(Nc2ccccc2)CCCCC1)C(=O)OC(C)(C)C	125 to 127 °C
CCOC(=O)Nc1ccc2c(c1)CC[C@H](CCC(F)(F)F)O2	88 °C
CC(C)CC1(C(CCN2C(=O)c3ccc(N)cc3C2=O)C(=O)NO)CCN(CCc2ccccc2)C1=O (stereo not given)	187 to 188 °C
CC(C)(C)c1cc(C(N)=O)cc(C(C)(C)C)c1O	263 to 265 °C
Fc1ccc(C=C(c2ccccc2)C(F)(F)F)cc1	35 to 41 °C
CCCSC1(C(F)(F)F)CN(C2CC2)C(=O)Nc2ccc(Cl)cc21 (stereo not given)	150 to 151 °C
NC(=O)C(Nc1cccc2c1C(=O)CO2)c1c(Cl)cccc1Cl (stereo not given)	245 °C
Cn1cnc(COc2nn3c(-c4ccccc4F)nnc3cc2-c2ccsc2)n1	216 to 218 °C
Cc1cc(CNC(=O)c2sc(-n3cnn(Cc4ccc(F)cc4)c3=O)nc2C)[nH]n1	234 to 235 °C
CN(C)c1[nH]c(=S)n(C2CCc3ccccc3C2)c1N(C)C (stereo not given)	182 to 184 °C
CC1CC(=O)c2cccc(C#N)c21 (stereo not given)	109 to 111 °C
NC(=O)Cc1ccc2c(c1)C(=O)Cc1cccnc1O2	214 to 217 °C
COc1cccc2c1nc(C(F)F)n2-c1nc(Nc2cccnc2)nc(N2CCOCC2)n1	221 to 223 °C
CC(=O)c1ccc(OCCCCCCOc2ccccc2)o1	80 °C
Cc1c(C=O)c2cnnc(OCc3ccccc3)c2n1Cc1ccccc1	147 to 149 °C

SMILES	melting point
COc1cc(C(=O)Nc2c(C)cc3cn(C(=O)OC(C)(C)C)nc3c2C(=O)NC(C)C)n(N2C=CC=C(Cl)C2)n1	161 to 162 °C
S=C1c2cccnc2N(c2ccccc2)C2=NCCN12	293 to 296 °C
CN(C)CCNC(=S)Nc1ccc(-c2nnc(CSCCOc3ccccc3)o2)cc1	155 to 158 °C
Cc1nnc(CO)n1-c1ccc(Cl)cc1C(=O)c1ccccc1Cl	194 to 195 °C
COc1cc(COc2nn(-c3ccccc3)cc2C=O)ccc1OCc1csc(N2CCCCC2)n1	123 to 124 °C
CCCS(=O)(=O)NC(=O)CCc1cc(OC(C)C)nn1Cc1ccc(Cl)cc1Cl	124 to 126 °C
COCc1cc(-c2cc3c(cc2F)c(=O)c(C(=O)O)cn3C2CC2)cc(C)n1	192 to 193 °C
COc1ccc(-c2nccs2)cc1OC1CCCC1	72 to 75 °C
CN1CCN(Cc2ccc(Cl)cc2Cl)C(C2=NCCN2)C1 (stereo not given)	167 to 169 °C
CS(=O)(=O)c1ccc(-n2nc(C(F)(F)F)cc2-c2ccc(-c3cscn3)cc2)cc1	168 to 170 °C
O=C(CCc1ccccc1)C(Cc1ccccc1)(Cc1ccccc1)C(=O)CCc1ccccc1	84 to 86 °C
O=C(O)/C=C/c1ccc(OCCN2CCOCC2)cc1	228 °C
CC(C)=C(C[C@H](N)C(=O)O)C(=O)O	198 to 199 °C
COc1cccc(C(=O)C=C2CCCN2C)c1	92 to 93 °C
COC(=O)c1ccc(C(O)c2cnn3c(N(C)c4ccccc4)ncnc23)cc1 (stereo not given)	68 °C
CCCn1nc(C(C)C)c(C(=O)OCc2ccccc2C(=O)c2ccccc2)c1Cc1ccc(-c2ccccc2S(=O)(=O)NC(=O)OCC(C)C)c(F)c1	52 to 59 °C
O=C(c1ccc(Cl)cc1)c1nccc2ccccc12	100 to 101 °C
O=C(Nc1ccc2nc(CN3CCCCC3)ccc2c1)c1ccc(-c2ccc(F)cc2)cc1	202 to 204 °C
O=C(NCS(=O)(=O)c1ccccc1)c1cc(Cl)nc(Cl)c1	209 to 210 °C

The next lines start with the values.

melting point	SMILES
147 to 149 °C	COC(=O)c1ccccc1C(=O)c1ccc(O)cc1
117 to 118 °C	COc1cc(Nc2nccc(-c3ccc(NCCN)nc3)n2)cc(OC)c1OC
71 to 72 °C	C#CCNc1ccc([N+](=O)[O-])cc1C(F)(F)F
72 to 76 °C	CCOC(=O)C(F)(F)C(O)C(CC(C)C)NC(=O)OC(C)(C)C (stereo not given)
39 to 41 °C	CCCCCCCC(O)C(C)(C)C(=O)O (stereo not given)
40 to 41 °C	COC(=O)c1coc2ccc(C)cc12
182 to 184 °C	CC(=O)CNC1(c2ccc(OC(C)=O)cc2)Sc2ccccc2N(C)C1=O (stereo not given)
240 °C	Cc1nc2c3c(ccn2c1C)C(=O)[C@@](C)(O)[C@@H](c1ccccc1)N3
82 to 85 °C	Cc1ccc(NC(=O)C(CC2CCCC2)c2ccc(S(C)(=O)=O)cc2)nc1 (stereo not given)
262 °C	Cc1ccnc(NC(=O)c2nc3ccccc3[nH]2)c1
121 to 122 °C	CC1CCCCC1N(Cc1ccc(C(=O)NC(C)(C)C(=O)O)cc1)S(=O)(=O)c1ccc(Cl)cc1 (stereo not given)
202 °C	O=C(O)Cc1ccc2c(c1)Nc1ccccc1S2
157 to 161 °C	CC(C)(C)C(=O)C(C(c1ccc(Cl)cc1)n1cncn1)n1cncn1 (stereo not given)
34 °C	Clc1ncc(-c2ccccc2)o1
189 to 190 °C	CCOC(=O)CCC(CC(=O)c1ccc(NCc2ccc3ccc4nc(C)[nH]c(=O)c4c3c2)cc1)C(=O)OCC (racemic)
231 °C	Cc1ccc2c(n1)[nH]c1ccc(C(=O)c3ccccc3)cc12

melting point	SMILES
249 to 252 °C	O=C(Nc1nccs1)c1nc(-c2ccc([N+](=O)[O-])cc2)[nH]c1-c1ccc(CO)cc1
97 to 98 °C	O=C1CCCCC1C(=S)Nc1ccc(Cl)cc1F (stereo not given)
115 to 118 °C	CN(C)S(=O)(=O)C=C(C(=O)C1CCCCC1)c1cccc([N+](=O)[O-])c1
103 to 106 °C	COC1c2sccc2C(=O)c2ccccc2C1Br (stereo not given)
37 to 39.5 °C	C=CCC(O)CCCCCCCCCCCCCCC (stereo not given)
181 to 183 °C	COC(=O)c1ccc(S(=O)(=O)N2CCC(Sc3cc(C(C)(C)C)c(O)c(C(C)(C)C)c3)CC2)n1C
163 to 164 °C	CC(C)(C)OC(=O)[C@@H]1CCCN1C[C@@H](O)[C@H](Cc1ccc(F)cc1)NC(=O)[C@H](CC(N)=O)NC(=O)OCc1ccccc1
138 to 142 °C	O=C(Nc1c([N+](=O)[O-])cnn1-c1c(Cl)cc(S(=O)(=O)C(F)(F)F)cc1Cl)C(Cl)Cl
42 to 57 °C	CC(C(=O)Oc1cc(=O)n(-c2cccc(C(F)(F)F)c2)c2ncccc12)c1ccccc1 (stereo not given)
105 to 106 °C	Cc1oc(-c2ccccc2)nc1CCOc1ccc(I)cn1
132 to 133 °C	CC(=O)n1nc(-c2ccc(Cl)cc2)nc1C
146 to 147 °C	Oc1cccc(C#CC=Cc2cccc(O)c2)c1
70 to 72 °C	O=C(c1ccnc(Cl)c1)N1CC(c2ccc(F)cc2)C2(CCN(Cc3ccccc3)CC2)C1 (stereo not given)
120 to 121 °C	Cc1c2n(c3ccccc13)C(=O)C(Cn1ccnc1C)CC2 (stereo not given)
155 °C	CC(=O)OC1CSC(Sc2ccc(C#N)cc2)C(OC(C)=O)C1OC(C)=O (stereo not given)
